From patent US20220387602A1, “BIFUNCTIONAL DEGRADERS AND THEIR METHODS OF USE” (NOVARTIS AG, priority 2019, published 2022)

Tests used:
CRBN [1] = target: T1, CRBN (Homo sapiens, UniProt Q96SW2); assay: CRBN displacement assay Format 1 (fluorescence polarization, BodipyFL-lenalidomide probe Compound HH); type: binding
Protocol: (§1) Compounds were tested in the following biochemical and cellular assays.
(§2) BodipyFL conjugated lenalidomide compound HH was used as a fluorescent probe. […] Protein and substrate were diluted in assay buffer.
All protein and probe containing solutions were handled in ‘Maxymum Recovery’ tubes (Axygen Scientific Inc., Union City, USA). […] For the plate measurements a PHERAstar reader (BMG Labtech, Offenburg, Germany) was used. The instrument was equipped with a specific optics module containing filters and dichoic mirrors for measuring the fluorescence polarization-type assay. With this module, the fluorescence of the Bodipy FL-based probe was excited at 485 nm and the emissions of the product were measured at 520 nm. The fluorescence in each well was excited by 10 flashes per measurement.
For the determination of AC50 values, the assays were performed at room temperature in 384-well plates with a total assay volume of 10.1 μL per well. The test compound was dissolved in 90% (v/v) DMSO/water. For the assays, 100 nL of the 90% (v/v) DMSO/water solution or compound solution were added per well, followed by the addition of 5 μL protein solution (protein in 1× assay buffer).
(§3) The final assay concentration of the protein was nominally 100 nM. After 45 minutes of pre-incubation at room temperature, the competition for binding was started by the addition of 5 μL probe solution (probe dissolved in assay buffer). The final concentration of the probes in the assays was 5 nM. After the addition of the probe solution, the final DMSO concentration in the assay was 0.9% (v/v). The effect of the probe on the pre-established compound-protein complex equilibrium was determined after 45 minutes (t=45 min). The AC50 value was calculated from the plot of percentage of protein saturation versus the test compound concentration by a logistics fit according to: y=A^2+(A^1−A^2)/(1+(x/AC50)^p), where y is the %-saturation value at the test compound concentration, x. A^1 is the lowest saturation value, i.e., 0%, and A^2 the maximum saturation value, i.e. 100%. The exponent, p, is the Hill coefficient.

BTK = target: T2, BTK (Homo sapiens, UniProt Q06187); assay: BTK-GFP protein abundance flow cytometry assay in HEK293A; type: cell-based; conditions: 24 h
T2 construct: the BTK open reading frame (ORF) was first shuttled from a pcDNA-DEST40-BTK vector; expressed in transfected cells; host or cells: HEK293A (Invitrogen R70507), lentiviral transduction, blasticidin selection
Protocol: Degradation of BTK, CSK, ABL2, EPHA4 and YES1 was measured in HEK293A cells (Invitrogen R70507) expressing either BTK-GFP and RFP, CSK-GFP and mCherry, GFP-ABL2 and mCherry, EPHA4-GFP and mCherry, or YES1-GFP and mCherry from a stably integrated bicistronic BTK-GFP-iresRFP, CSK-GFP-CHYSEL-mCherry, GFP-ABL2-CHYSEL-mCherry, EPHA4-GFP-CHYSEL-mCherry, or YES1-GFP-CHYSEL-mCherry construct, respectively. Reduction of the GFP signal measured by flow cytometry served as readout for BTK, CSK, ABL2, EPHA4 and YES1 degradation after degrader treatment.
The mix was incubated for another 20 min at RT and then added on 1 mL of a freshly prepared suspension of HEK293FT cells in a well of a 6-well plate (concentration 1.2×10^6 cells/mL). 1 day after transfection, the medium was replaced with 1.5 mL of complete growth medium (DMEM high Glucose+10% FCS+1% L-Glutamine+1% NEAA+1% NaPyr.). 48 h post transfection supernatant containing viral transducing particles was collected and frozen at −80° C.
Infection was performed with 90 μL of collected supernatant containing viral transducing particles in 1 mL medium including 8 µg/mL polybrene. 24 h post infection, stably transfected cells were selected with blasticidin at a concentration of 8 μg/mL referred to as stable HEK293A sensor cells.
Stable HEK293A sensor cells were maintained in complete growth medium (DMEM high Glucose+10% FCS+1% L-Glutamine+1% NEAA+1% NaPyr.) with passaging performed twice per week. On Day 0, stable HEK293A sensor cells were seeded at 10,000 cells/well in a 96-well microtiter plate in 260 μL complete medium. On Day 1, cells were treated in duplicate with 10-point 1:3 dilution series of compound using the HP D300 Digital Dispenser (Tecan). DMSO concentrations were normalized across the plate to 0.1%. On Day 2, after 24 h of incubation at 37° C., treatment media was discarded, cells rinsed with 100 μL/well PBS and then detached using 40 μL trypsin/well for 5 min. Trypsin was neutralized with 100 μL/well PBS+20% FCS). Flow cytometry was performed on the samples using the BD FACS CANTO II (Becton Dickinson). Cell identification was then performed using forward (FSC) vs. side scatter (SSC) plots. Single cell discrimination is performed using SSC-Width (SSC-W) vs. SSC-Height (SSC-H) plots. Median GFP values for 5,000 single cells are used to determine BTK levels. Median GFP values from HEK293 Å-iresRFP are used as a background signal and thus defining 0% BTK signal. Median GFP values from DMSO treated HEK293 Å-BTK-GFP-iresRFP are used to define 100% BTK signal for subsequent DC50 curves (concentration at 50% BTK degradation). GFP and RFP are read in the channels called FITC and PE, respectively.
Concentration response curves plotting relative reduction of the GFP signal (measured by flow cytometry) versus 10 compound concentrations (starting concentration 10 μM, 3 fold dilution steps) of the compounds allowed generation of DC50 values. Protein abundance measured for the second generation vectors having a chysel was done in close analogy to the above described method for measuring BTK abundance.
Table 5 columns are defined as follows: DC50 refers to the concentration at which 50% maximal degradation was observed; deg Amax is the extent of degradation and the value refers to the % protein remaining at the concentration at which maximum degradation is seen.

CRBN [2] = target: T1, CRBN; assay: CRBN displacement assay Format 2a (fluorescence polarization, 1536-well, Envision reader); type: binding
Protocol: as §1, §2
The fluorescence of the Bodipy FL-based probe was excited at 480 nm and the emissions of the product were measured at 535 nm. The fluorescence in each well was excited by 30 flashes per measurement.
For the determination of AC50 values, assays were performed at room temperature in 1536-well plates with a total assay volume of 6.03 μL per well. The test compounds were dissolved and diluted in 100% DMSO. For the assays, 30 nL of DMSO or compound solution were added per well, followed by the addition of 3 μL protein solution (80 nM protein in 1× assay buffer).
as §3, with “nominally 40” for “nominally 100”, “of 3” for “of 5”, “solution (10 nM probe” for “solution (probe”, “the probe” for “the probes”, “was 0.5%” for “was 0.9%”

[3] = concentration at which 50% of reference probe Compound HH is displaced, 100 nM protein, 5 nM probe, Table 4, read-out: CRBN AC50 [μM] Format 1
[4] = concentration at which 50% of reference probe Compound HH is displaced, 40 nM protein, 5 nM probe, read-out: CRBN AC50 [μM] Format 2a

T1 sequence (Q96SW2 whole entry): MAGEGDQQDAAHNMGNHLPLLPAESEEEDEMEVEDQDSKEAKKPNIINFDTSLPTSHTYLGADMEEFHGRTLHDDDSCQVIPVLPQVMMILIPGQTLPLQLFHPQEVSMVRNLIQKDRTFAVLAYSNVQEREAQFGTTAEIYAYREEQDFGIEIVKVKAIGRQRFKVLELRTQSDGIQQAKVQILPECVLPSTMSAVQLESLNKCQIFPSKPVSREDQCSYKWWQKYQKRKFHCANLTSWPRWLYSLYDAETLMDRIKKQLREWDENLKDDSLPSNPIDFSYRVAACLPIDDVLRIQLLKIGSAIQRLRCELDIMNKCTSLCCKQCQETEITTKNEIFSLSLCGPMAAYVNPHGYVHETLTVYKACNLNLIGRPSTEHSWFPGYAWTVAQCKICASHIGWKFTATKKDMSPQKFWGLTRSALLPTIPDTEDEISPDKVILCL
T2 sequence (Q06187 whole entry): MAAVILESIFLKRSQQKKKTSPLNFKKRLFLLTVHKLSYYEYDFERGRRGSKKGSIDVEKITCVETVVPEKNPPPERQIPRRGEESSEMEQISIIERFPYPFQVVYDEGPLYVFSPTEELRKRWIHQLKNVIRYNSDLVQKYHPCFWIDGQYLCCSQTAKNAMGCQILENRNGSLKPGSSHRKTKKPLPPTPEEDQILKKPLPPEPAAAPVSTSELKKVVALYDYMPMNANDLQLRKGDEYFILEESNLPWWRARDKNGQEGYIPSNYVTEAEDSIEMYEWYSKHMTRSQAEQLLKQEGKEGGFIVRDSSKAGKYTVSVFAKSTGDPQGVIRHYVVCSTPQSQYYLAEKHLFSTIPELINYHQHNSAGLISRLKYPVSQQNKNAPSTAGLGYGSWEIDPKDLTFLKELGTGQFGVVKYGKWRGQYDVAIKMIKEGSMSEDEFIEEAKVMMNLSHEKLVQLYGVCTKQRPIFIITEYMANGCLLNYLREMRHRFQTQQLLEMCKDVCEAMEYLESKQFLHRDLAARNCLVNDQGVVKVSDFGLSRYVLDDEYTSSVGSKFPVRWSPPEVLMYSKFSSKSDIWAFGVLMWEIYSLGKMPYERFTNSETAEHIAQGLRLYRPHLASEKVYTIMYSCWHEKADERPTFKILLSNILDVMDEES

Compound | AC50 (CRBN [1]) | AC50 (CRBN [1]; [3]) | AC50 (CRBN [2]; [4]) | AC50 (CRBN [2]) | further results
COc1cc(C(=O)NCCCCN2CCN(Cc3ccc(-c4cc5c(-c6cc(F)cc(NC(=O)c7ccc(C(C)(C)O)cc7F)c6C)ncnc5[nH]4)cc3)CC2)ccc1N1CCC(=O)NC1=O [Compound 25, N-(3-(6-(4-((4-(4-(4-(2,4-dioxotetrahydropyrimidin-1(2H)-yl)-3-methoxybenzamido)butyl)piperazin-1-yl)methyl)phenyl)-7H-pyrrolo[2,3-d]pyrimidin-4-yl)-5-fluoro-2-methylphenyl)-2-fluoro-4-(2-hydroxypropan-2-yl)benzamide] | 4.47 µM |  |  |  | BTK degradation Amax (BTK; % protein remaining at the concentration at which maximum degradation is seen, HEK293A): 51.1%; DC50 (BTK; concentration at which 50% maximal degradation was observed, HEK293A BTK-GFP sensor cells): > 3.33 µM
O=C1CCN(c2ccc(C#CCN3CCOC4(CCNCC4)C3)cc2)C(=O)N1 [ILB-40, 1-(4-(3-(1-oxa-4,9-diazaspiro[5.5]undecan-4-yl)prop-1-yn-1-yl)phenyl)dihydropyrimidine-2,4(1H,3H)-dione] |  | 12.3 µM | 3.45 µM |  | 
COc1cc(C(=O)O)ccc1N1CCC(=O)NC1=O [ILB-81, 4-(2,4-dioxotetrahydropyrimidin-1(2H)-yl)-3-methoxybenzoic acid] |  | 12.3 µM | 2.38 µM |  | 
O=C1CCN(c2ccc(C(=O)O)cc2)C(=O)N1 [ILB-31] |  | 9.64 µM | 5.1 µM |  | 
C#Cc1cccc(N2CCC(=O)NC2=O)c1 [ILB-33, 1-(3-ethynylphenyl)dihydropyrimidine-2,4(1H,3H)-dione] |  | 6.52 µM | 2.68 µM |  | 
C=CCn1cccc(CN2CCC(=O)NC2=O)c1=O [ILB-1, 1-((1-allyl-2-oxo-1,2-dihydropyridin-3-yl)methyl)dihydropyrimidine-2,4(1H,3H)-dione] | 11 µM |  |  | 4.79 µM | 
O=C1CCN(Cc2cccn(CCN3CCC(OC4CCNCC4)CC3)c2=O)C(=O)N1 [ILB-6, 1-((2-oxo-1-(2-(4-(piperidin-4-yloxy)piperidin-1-yl)ethyl)-1,2-dihydropyridin-3-yl)methyl)dihydropyrimidine-2,4(1H,3H)-dione] | 19.8 µM |  |  | 8.36 µM | 
COc1ccc(C(=O)O)cc1N1CCC(=O)NC1=O [ILB-26, 3-(2,4-dioxotetrahydropyrimidin-1(2H)-yl)-4-methoxybenzoic acid] |  | 2.92 µM | 1.26 µM |  | 
Cc1ccc(C(=O)O)cc1N1CCC(=O)NC1=O [ILB-24, 3-(2,4-dioxotetrahydropyrimidin-1(2H)-yl)-4-methylbenzoic acid] |  | 2.85 µM | 0.68 µM |  | 
O=C1CCN(Cc2cccn(CCO)c2=O)C(=O)N1 [ILB-3, 1-((1-(2-Hydroxyethyl)-2-oxo-1,2-dihydropyridin-3-yl)methyl)dihydropyrimidine-2,4(1H,3H)-dione] | 14.1 µM |  |  | 4.17 µM | 
COc1ccc(C(=O)N2CCC(OC3CCNCC3)CC2)cc1N1CCC(=O)NC1=O [ILB-59, 1-(2-methoxy-5-(4-(piperidin-4-yloxy)piperidine-1-carbonyl)phenyl)dihydropyrimidine-2,4(1H,3H)-dione] | 1.36 µM |  |  | 0.34 µM | 
O=C1CCN(Cc2cc(C(=O)O)ccn2)C(=O)N1 [ILB-8, 2-((2,4-Dioxotetrahydropyrimidin-1(2H)-yl)methyl)isonicotinic acid] | > 100 µM |  |  | > 50 µM | CRBN Amax* (% at 50 μM) Format 2a (CRBN [2]; greatest effect as % displacement of the reference probe at the highest concentration tested (50 μM), given where AC50 >50 μM, 45 min): 21%
O=C(O)COc1cccc(N2CCC(=O)NC2=O)c1 [ILB-16, 2-(3-(2,4-Dioxotetrahydropyrimidin-1(2H)-yl)phenoxy)acetic acid] |  | 11.7 µM | 7.34 µM |  | 
Cc1ccc(OCC=O)cc1N1CCC(=O)NC1=O [ILB-19, 2-(3-(2,4-dioxotetrahydropyrimidin-1(2H)-yl)-4-methylphenoxy)acetaldehyde] |  | 2.51 µM | 0.8 µM |  | 
O=C1CCN(c2cc(C(=O)O)ccc2Cl)C(=O)N1 [ILB-25, 4-chloro-3-(2,4-dioxotetrahydropyrimidin-1(2H)-yl)benzoic acid] |  | 1.98 µM | 0.48 µM |  | 
Cc1ccc(OCC(=O)O)cc1N1CCC(=O)NC1=O [ILB-20, 2-(3-(2,4-Dioxotetrahydropyrimidin-1(2H)-yl)-4-methylphenoxy)acetic acid] |  | 5.37 µM | 2.01 µM |  | 
COc1ccc(C(=O)N2CCC3(CCNCC3)CC2)cc1N1CCC(=O)NC1=O [ILB-56, 1-(2-methoxy-5-(3,9-diazaspiro[5.5]undecane-3-carbonyl)phenyl)dihydropyrimidine-2,4(1H,3H)-dione] | 1.26 µM |  |  | 0.23 µM | 
O=C1CCN(c2cc(C(=O)O)ccc2F)C(=O)N1 [ILB-27, 3-(2,4-dioxotetrahydropyrimidin-1(2H)-yl)-4-fluorobenzoic acid] |  | 3.03 µM | 0.74 µM |  | 
